Results published in US20050153306A1, “Fluorogenic enzyme substrates and uses thereof” (IRM LLC, priority 2003, published 2005).

Columns and labels:
caspase-3 = target: T1, caspase-3 (Homo sapiens, UniProt P42574); test: Enzymatic activity monitored using rhodamine protease substrates (fluorescence); assay type: biochemical; design: made in house; details: substrate 250 μM, caspase-3 10 nM, 37° C.
T1 sequence (P42574 29-175 limits assumed): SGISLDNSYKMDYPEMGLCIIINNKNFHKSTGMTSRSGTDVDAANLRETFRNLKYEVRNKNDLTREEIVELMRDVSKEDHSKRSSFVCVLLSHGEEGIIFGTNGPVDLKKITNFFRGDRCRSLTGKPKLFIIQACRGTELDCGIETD
T1 sequence (P42574 176-277 limits assumed): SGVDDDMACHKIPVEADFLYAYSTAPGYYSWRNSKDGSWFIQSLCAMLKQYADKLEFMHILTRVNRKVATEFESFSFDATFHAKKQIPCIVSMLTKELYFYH
Procedure: (§1) The substrates 1 and 3 were used at 250 μM. Thrombin was used at a concentration of 500 pM and caspase-3 was used at a concentration of 10 nM. For thrombin a buffer consisting of 50 mM Tris (pH 7.4),200 mM NaCl, 5 mM CaCI2 and 0.01% (v/v) Tween-20 (THB) was used. The buffer for caspase-3 (CAB) consisted of 20 mM HEPES (pH 7.4), 100 mM NaCi, inM EDTA, 0.1% CHAPS,10% (w/v) sucrose and 10 mM DTT. 50 µl of the buffer containing the substrate at a concentration of 500 JIM were transferred into a well of a black 96-well Microfluor plate (Dynex Technologies, Chantilly, Va.). The reaction was initiated by the addition of 50 μL of the buffer containing the enzyme at a concentration of 1 nM for thrombin or 20 nM for caspase-3. The hydrolysis of rhodamine substrates was measured with a Spectramax Gemini XS spectrofluorimeter (Molecular devices, Sunnyvale, Calif.) thermostated at 37° C. using an excitation wavelength of 490 nm, an emission wavelength of 530 nm and a cutoff wavelength of 515 nm.

Thrombin = target: T2, Thrombin (Homo sapiens, UniProt P00734); test: as above; assay type: biochemical; details: substrate 250 μM, thrombin 500 pM, 37° C.
T2 construct: purchased Haematologic Technologies (Essex Jct., Vt.)
Procedure: as §1

Substance	fluorescence signal (enzymatic hydrolysis of the rhodamine substrate) (caspase-3)	fluorescence signal (enzymatic hydrolysis of the rhodamine substrate) (caspase-3; listed as (DEVD)2-rhodamine-Ac)	fluorescence signal (enzymatic hydrolysis of the rhodamine substrate) (Thrombin)	fluorescence signal (enzymatic hydrolysis of the rhodamine substrate) (Thrombin; listed as (nTPR)2-rhodamine-Ac)
(Ac-DEVD)2-rhodamine-Lys(Ac) [compound 1]	strong fluorescent signal	linear increase in fluorescence	only a slight increase in fluorescence	–
(Ac-nTPR)2-rhodamine-Lys(Ac) [compound 3]	only a slight increase in fluorescence	–	strong fluorescent signal	linear increase in fluorescence
